Results as given in patent publication US20150174283A1, “Smart, Self-Decontaminating Polymer and Method for Inhibiting The Growth Of A Bacteria and Fungus” (priority 2012, published 2015).

Key:
Staphylococcus aureus = experiment: S. aureus growth on TSA plates with or without hydroxylamine and polymer foams; assay type: cell-based; details: TSA plates containing 500 uM HA, no polymer, 18 hours, 37 C
Excerpt: The microorganism, Staphylococcus aureus (S. aureus/Staph), was utilized. Staphylococcus aureus is an important bacterium to study and ultimately have the ability to inhibit, as Staphlococcus can cause a number of diseases as a result of infection. The strain Methicillin-resistant Staphylococcus aureus or MRSA is a multi-drug resistant bacterium, making any MRSA infection difficult to treat with standard antibiotics and is thus a more dangerous infection; the number of drug-resistant MRSA cases has increase by 90% over the past decade. MRSA is the most significant infection encountered in hospital settings, costing US hospitals $3.2 to 4.2 billion annually to treat infected patients. Patients with MRSA infections often require longer hospital stays and more time spent in intensive care units. […]

host cells = details: cited from earlier work
[1] = chlorination of thionin by enzymes in solution (bleaching followed at 598 nm); assay type: biochemical; details: substrate glucose
Method: The chlorinating activity of composite polymers was measured by following the chlorination of a colored substrate (thionin). The thionin is a blue-violet dye that absorbs at 598 nm and undergoes bleaching (to colorless) upon chlorination. A battery of tests were carried out in 100 mM phosphate citrate buffer at pH 4.0. […] The reaction mixture comprised 1.45 mL of the thionin/NaCl solution, 30 μL of the substrate solution (glucose or peroxide), and 25 μL of the enzyme solution (total). Buffer was used to replace the enzyme or substrate in control reactions.

What does the source list for `NO` [HA, hydroxylamine]?
S. aureus growth (Staphylococcus aureus): does not inhibit the growth; S. aureus growth (Staphylococcus aureus; listed as Hydroxylamine): not effected

Which “concentration toxic to the host cells” value (host cells) does the source give for `OO` [hydrogen peroxide, Hydrogen peroxide] here?
The value was over 3%.

With glucose oxidase as the compound, how does the “absorbance of thionin at 598 nm, after two minutes” value ([1]; 20 mM NaCl, pH 4.0) read?
The value was 0.670.

And the “color change of thionin” value ([1]; thionin/NaCl solution, two minutes)?
Its value is “no color change was observed”.
